Where two headings read alike, the source gives them in different places.
Columns and labels:
[1] = test system: hiPSC-CMs (iCell-Cardiomyocytes^2)
Description: (§1) Cells were seeded according to the instructions of the cell provider, in fibronectin-coated 48-well MEA plates (Axion Cytoview Plates, M768-tMEA-48B) at a density suited to form a monolayer (i.e., 50 K/well) and maintained in culture in a stage incubator (37°C, 5% CO2).
(§2) At least 4 h before the beginning of the baseline measurements, a full medium exchange was performed (to a final volume of 400 µL per well). Neat compounds were dissolved in 100% DMSO at a stock concentration 1000-fold the highest target concentration. […] Afterwards, these stock solutions were diluted with Maintenance medium (CDi), to 10-fold the intended concentration. The final DMSO concentration in test solutions and vehicle control was 0.1%.
(§3) Spontaneous electrical activity was recorded in hiPSC-CMs monolayers as field potentials using the Maestro Pro MEA instrument (Axion Biosystems, Atlanta, GA, United States), which allows the maintenance of accurate temperature and CO2 levels (37°C, 5% CO2). After the plate was placed in the Maestro Pro and allowed to equilibrate for about 10 min, baseline acquisition of field potential and impedance signals was initiated and lasted for 5 min each. […] As impedance measures resistance of an applied alternating current through the hiPSC-CMs monolayer, a reduction in the attachment of hiPSC-CMs to the bottom of the well due to cell death or changes in the monolayer morphology, causes a drop in the impedance signal.
The potential presence of various arrhythmic events was evaluated and noted during the data analysis.
(§4) After the acquisition of all timepoint measurements, raw data were loaded into the data analysis software Axion Cardiac Analysis Tool (V.3.2.3). […] A.csv file containing information on the FP parameters per well, per time point, was then generated and used as input to the in-house data management system (SPEcII v.3.4, Unlimit-IT, Geel, Belgium), where descriptive statistics were calculated. Summary values at different time points after compound addition are expressed as percent change from baseline and shown as mean ± standard deviation (SD).
(§5) The nonparametric Wilcoxon-Mann Whitney Test was used to compare the percent change from the baseline (Δ%) value between the group treated with the compound at a given concentration and the group treated with the DMSO at each matching time points. A two-sided test at 5% significance level was considered. […] To assess the physiological relevance of changes, a tolerance interval of DMSO experiments was calculated at each time point, for each parameter. […] TIs indicate an interval where, with a certain confidence level (1- α = 0.95), a specified proportion (p = 0.80) of percent change for DMSO data falls. The lower and upper limits based on the TI values were used as cut-offs for the interpretation of the changes. For the cytotoxicity assays, measurements of fluorescence (after background fluorescence subtraction) from wells treated with the compounds were normalized by the average value of vehicle experiments (DMSO 0.1%) to obtain a DMSO-corrected, delta/delta percent change. Experiments from each condition, as delta/delta percent, were averaged and expressed as mean ± SD. Statistical analysis was performed using a non-parametric test (Kruskal-Wallis) and each treatment condition was compared to the relative DMSO 0.1%. Differences were considered statistically significant when the p-value was smaller than 0.05.

[2] = free therapeutic Cmax in humans; ref FDA-approved drug packages, PharmaPendium; cited from earlier work
[3] = test system: hiPSC-CMs (iCell-Cardiomyocytes^2); assay: MEA impedance (cytotoxicity readout) in hiPSC-CMs
Description: as §1, §2, §3, §4, §5

[4] = all concentrations tested, up to 96 h

CC(=O)Oc1ccccc1C(=O)O [Aspirin]
BR (beating rate), % change from baseline ([1]; 3 µM, 72h): -10±2% | FPD (field-potential duration), % change from baseline ([1]; 3 µM, 72h): 16.3±2.2% | BR (beating rate), % change from baseline ([1]; 3 µM, 96h): -18±1% | FPD (field-potential duration), % change from baseline ([1]; 3 µM, 96h): 25.2±3.5% | BR (beating rate), % change from baseline ([1]; 3 µM, 2h): 2±2% | FPD (field-potential duration), % change from baseline ([1]; 3 µM, 2h): 2.5±1.6% | BR (beating rate), % change from baseline ([1]; 3 µM, 24h): 1±2% | FPD (field-potential duration), % change from baseline ([1]; 3 µM, 24h): 6.2±3% | BR (beating rate), % change from baseline ([1]; 3 µM, 48h): -7±1% | FPD (field-potential duration), % change from baseline ([1]; 3 µM, 48h): 13.2±2.8% | BR (beating rate), % change from baseline ([1]; 10 µM, 2h): 3±2% | FPD (field-potential duration), % change from baseline ([1]; 10 µM, 2h): 4±7.9% | BR (beating rate), % change from baseline ([1]; 10 µM, 24h): 2±3% | FPD (field-potential duration), % change from baseline ([1]; 10 µM, 24h): 5.8±4.5% | BR (beating rate), % change from baseline ([1]; 10 µM, 48h): -8±3% | FPD (field-potential duration), % change from baseline ([1]; 10 µM, 48h): 12.2±6.3% | BR (beating rate), % change from baseline ([1]; 10 µM, 72h): -9±2% | FPD (field-potential duration), % change from baseline ([1]; 10 µM, 72h): 14.6±6.7% | BR (beating rate), % change from baseline ([1]; 10 µM, 96h): -17±3% | FPD (field-potential duration), % change from baseline ([1]; 10 µM, 96h): 23.3±7.8% | BR (beating rate), % change from baseline ([1]; 30 µM, 2h): 3±2% | FPD (field-potential duration), % change from baseline ([1]; 30 µM, 2h): 0.9±1.8% | BR (beating rate), % change from baseline ([1]; 30 µM, 24h): 0±4% | FPD (field-potential duration), % change from baseline ([1]; 30 µM, 24h): 6.7±3.9% | BR (beating rate), % change from baseline ([1]; 30 µM, 48h): -8±2% | FPD (field-potential duration), % change from baseline ([1]; 30 µM, 48h): 13.5±5.1% | BR (beating rate), % change from baseline ([1]; 30 µM, 72h): -9±3% | FPD (field-potential duration), % change from baseline ([1]; 30 µM, 72h): 15.4±5% | BR (beating rate), % change from baseline ([1]; 30 µM, 96h): -18±4% | FPD (field-potential duration), % change from baseline ([1]; 30 µM, 96h): 23.3±4.7% | BR (beating rate), % change from baseline ([1]; 100 µM, 2h): 2±3% | FPD (field-potential duration), % change from baseline ([1]; 100 µM, 2h): 0.2±2.9% | BR (beating rate), % change from baseline ([1]; 100 µM, 24h): -2±3% | FPD (field-potential duration), % change from baseline ([1]; 100 µM, 24h): 7.2±3.6% | BR (beating rate), % change from baseline ([1]; 100 µM, 48h): -7±2% | FPD (field-potential duration), % change from baseline ([1]; 100 µM, 48h): 13.4±3% | BR (beating rate), % change from baseline ([1]; 100 µM, 72h): -10±3% | FPD (field-potential duration), % change from baseline ([1]; 100 µM, 72h): 17.6±2% | BR (beating rate), % change from baseline ([1]; 100 µM, 96h): -16±4% | FPD (field-potential duration), % change from baseline ([1]; 100 µM, 96h): 23.9±1.7% | cessation of beating, flat T-wave or arrhythmic-like events [1, 4]: no cessation of beating, flat T-wave or arrhythmic-like events were detected | Free Cmax [2]: 11.1 µM | Imp (impedance), % change from baseline ([3]; 3 µM, 72h): -2±2% | Imp (impedance), % change from baseline ([3]; 3 µM, 96h): -7±3% | Imp (impedance), % change from baseline ([3]; 3 µM, 2h): 5±3% | Imp (impedance), % change from baseline ([3]; 3 µM, 24h): -9±4% | Imp (impedance), % change from baseline ([3]; 3 µM, 48h): -10±2% | Imp (impedance), % change from baseline ([3]; 10 µM, 2h): 6±2% | Imp (impedance), % change from baseline ([3]; 10 µM, 24h): -8±3% | Imp (impedance), % change from baseline ([3]; 10 µM, 48h): -7±3% | Imp (impedance), % change from baseline ([3]; 10 µM, 72h): -4±5% | Imp (impedance), % change from baseline ([3]; 10 µM, 96h): -6±6% | Imp (impedance), % change from baseline ([3]; 30 µM, 2h): 6±4% | Imp (impedance), % change from baseline ([3]; 30 µM, 24h): -4±3% | Imp (impedance), % change from baseline ([3]; 30 µM, 48h): -8±3% | Imp (impedance), % change from baseline ([3]; 30 µM, 72h): -1±2% | Imp (impedance), % change from baseline ([3]; 30 µM, 96h): -3±2% | Imp (impedance), % change from baseline ([3]; 100 µM, 2h): 8±1% | Imp (impedance), % change from baseline ([3]; 100 µM, 24h): -7±4% | Imp (impedance), % change from baseline ([3]; 100 µM, 48h): -11±3% | Imp (impedance), % change from baseline ([3]; 100 µM, 72h): -2±6% | Imp (impedance), % change from baseline ([3]; 100 µM, 96h): -6±7% | effect on impedance [3, 4]: did not have a significant effect on impedance
